According to ChEMBL document CHEMBL4834492, “Targeting the KRAS G12D Mutant as Potential Therapy in Cancer” (ACS Med Chem Lett, 2021):

Assays:
[1] = system: A-427; test: Antiproliferative activity against human A427 cells expressing KRAS G12D mutant assessed as inhibition of cell growth measured after 3 days by CellTiter-Glo assay; format: functional, cell-based; conditions: A-427, 72 h
[2] = biological target: GTPase KRas (Homo sapiens, UniProt P01116, G12D); test: Inhibition of recombinant his-tagged KRAS G12D mutant (unknown origin) expressed in Escherichia coli BL21(DE3) assessed as inhibition of GDP-GTP exchange rate in presence of recombinant SOS1/GMPPNP incubated for 1 hr by BODIPY fluorescence assay
Chain of GTPase KRas (P01116 whole entry G12D): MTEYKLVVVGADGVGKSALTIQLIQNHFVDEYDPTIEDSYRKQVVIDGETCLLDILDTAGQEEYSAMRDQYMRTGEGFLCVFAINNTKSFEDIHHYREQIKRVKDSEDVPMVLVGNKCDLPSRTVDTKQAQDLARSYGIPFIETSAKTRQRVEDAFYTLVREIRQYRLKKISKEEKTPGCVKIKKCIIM

| SMILES | IC50 [1] [nM] | IC50 [2] [nM] |
| --- | --- | --- |
| Oc1cc(N2CCc3c(nc(OCC4(CN5CCOCC5)CC4)nc3N3CC4CCC(C3)N4)C2)c2c(I)cccc2c1 | 350 | – |
| CN(C)CC1(COc2nc3c(c(N4CC5CCC(C4)N5)n2)CCN(c2cc(O)cc4cccc(Br)c24)C3)CC1(F)F (centres undefined) | 540 | – |
| CN1C[C@H](F)C[C@H]1COc1nc2c(c(N3CC4CCC(C3)N4)n1)CCN(c1cc(O)cc3cccc(Br)c13)C2 | 650 | – |
| Oc1cc(N2CCc3c(nc(OCC4(CN5CCOCC5)CC4)nc3N3CC4CCC(C3)N4)C2)c2c(Br)cccc2c1 | 590 | 1.2 |
| Cc1cccc2cc(O)cc(N3CCc4c(nc(OCC5(CN6CCOCC6)CC5)nc4N4CC5CCC(C4)N5)C3)c12 | 550 | – |
| Oc1cc(N2CCc3c(nc(OCC4(CN5CC[C@@H](F)C5)CC4)nc3N3CC4CCC(C3)N4)C2)c2c(I)cccc2c1 | 470 | – |
| Oc1cc(N2CCc3c(nc(OCC4(CN5CC[C@@H](F)C5)CC4)nc3N3CC4CCC(C3)N4)C2)c2c(Br)cccc2c1 | 540 | – |
| CN(C)CC1(COc2nc3c(c(N4CC5CCC(C4)N5)n2)CCN(c2cc(O)cc4cccc(I)c24)C3)CC1 | 580 | – |
